Test results taken from patent US6677306B1, “Chondrogenic and osteogenic inducing molecule” (Northwestern University, priority 1998, dated 2004).
“Also recorded” adds a separate entry of the source.

B1: rA4: recombinant polypeptide SEQ ID NO:6, secreted form of rat amelogenin gene splice product, exons 2, 3, 4, 5, 6d and 7 (protein)
chain: MPLPPHPGSPGYINLSYEKSHSQAINTDRTALVLTPLKWYQSMIRQPPLSPILPELPLEAWPATDKTKREEVD
modifications: Recombinant rat amelogenin
B2: rB4: recombinant full-length rat amelogenin, exons 2, 3, 4, 5, 6 and 7 (protein, UniProt P63278 1-210, looked up)
chain: MGTWILFACLLGAAFAMPLPPHPGSPGYINLSYEKSHSQAINTDRTALVLTPLKWYQSMIRQPYPSYGYEPMGGWLHHQIIPVLSQQHPPSHTLQPHHHLPVVPAQQPVAPQQPMMPVPGHHSMTPTQHHQPNIPPSAQQPFQQPFQPQAIPPQSHQPMQPQSPLHPMQPLAPQPPLPPLFSMQPLSPILPELPLEAWPATDKTKREEVD
modifications: full-length

Assays:
[1] = system: embryonic muscle fibroblasts (EMF); assay: EMF [35S]-SO4-incorporation assay (sulfate incorporation into proteoglycan); format: cell-based, rat; conditions: for activity in directing change in phenotype of embryonic rat muscle fibroblasts in vitro: compared with rBMP-2
Source text: Embryonic Muscle Fibroblast (EMF) Tissue Culture Assay Embryonic Muscle Fibroblasts. Rat EMF cells were derived from the thigh muscles of 20 day old Sprague Dawley rat embryos for use in primary tissue culture assays using a modification of the Koskinen harvesting technique (Koskinen et al., 1985), and grown in growth media (GM) [α-Modified Eagle's Medium (αMEM , Life Technologies, Gaithersburg, Md.), containing 10% heat inactivated fetal bovine serum (FBS), 1% Penicillin/Streptomycin (P/S)] in 5% O2/95% air at 37° C. EMFs were frozen at passage 2 (P-2).
Short Term Culture and Labeling with ^35SO4—Sulfate. The EMFs were plated (day 0) at a concentration of 10^4 cells per well in a 96 well plate which had been precoated with 100 μl of a 50 μg/ml solution of type I Rat Tail Collagen (Collaborative Biomedical Products). The cells were grown for 5 days in GM. On day 5, the cells were conditioned by removing the GM and adding conditioning media (CM) (αMEM containing 0.5% FBS, 1 % P/S) for 24 hours. This media was replaced with 100 μl of fresh CM, just prior to the addition of the test factors (hour 0). Test factors were added to test wells in triplicate. PBS/0. […] 1% BSA, were used as positive controls. Four hours following the addition of factors, the cells were labeled with 1 μCi ^35S—SO4/10 μl sterile PBS/well/96 well plate for 20 hours.
Assay of ^35S Sulfate Incorporation Into Proteoglycans in the Medium. In a departure from the Koskinen et al. (1985) protocol, glycosaminoglycan synthesis was routinely determined by the measurement of incorporation of ^35S sulfate (ICM Biomedical, Costa Mesa, Calif.) into the total cetylpyridinium chloride (CPC)-precipitable materials in the media without prior papain digestion. […] The total medium from each well (˜115 μl) was placed into a 13×100 mm glass culture tube. 150 μl of 100 μg/ml Chondroitin Sulfate A Sodium Salt (Sigma, St. Louis, Mo.) at 4° C. (buffer C), was added to each tube to serve as a carrier. 500 μl of 2.0 mM MgSO4. 4° C. (buffer B), was added. The mixture was incubated in a 37° C. water bath with shaking for 30 minutes. One ml of 1% CPC in 0.02M NaCl (buffer D) was added and incubated at 37° C. for 60 minutes in the water bath.
The samples were filtered through Whatman GF/A glass microfibre filters using a Millipore 12 well filtration device. The contents of each glass tube were individually poured into one of the wells under suction. The tube and filters were washed with buffer B 3 times. The filters were allowed to dry briefly, and were transferred to a scintillation vial. Then 5 ml scintillation cocktail was added per vial and the radioactive counts were measured in the scintillation counter.
In vitro assay for chondrogenic activity: The purified recombinant proteins were tested for biological activity by the assay for enhanced incorporation of ^35S—SO4 into proteoglycan (8,11) by embryonic rat muscle fibroblasts (EMF). The EMF were seeded onto type I collagen coated 96 well plates, with an initial loading of 10^4 cell/well. The cells were grown to near confluence in alpha MEM, 10% FBS, 1% Pen/Strep in 5 days. At day 5 the growth media was replaced with conditioning media (CM), alpha MEM, 0.5% FBS, 1% Pen/Strep, and grown for an additional 24 h. Fresh CM containing the factors to be tested, was added at the concentrations noted. Four hours later, 1 μCi^35 S—SO4 in 10 μL sterile PBS was added per well, and incubation was continued for 20 h. The ^35S—SO4 incorporated into secreted proteoglycan was determined by precipitation of the proteoglycan with cetyl pyridinium chloride, as described above, followed by scintillation counting of the precipitate. The cell layer was trypsinized and the number of cells counted.

[2] = system: quadriceps of Long-Evans rats; assay: In vivo osteogenic activity, poly(lactide)-poly(glycolide) scaffold implants in quadriceps; parameters: species or system rat; conditions: for mineral deposition in implants, Alizarin Red and von Kossa staining / radiograph of implants after excision, mineralization pattern / vascularization, cell infiltration and extracellular matrix in implants (H&E) / ingrowth of capillaries and extracellular matrix formation, r(A-4) versus rA4 implants: 4 weeks; for vascularization, cell infiltration and extracellular matrix in implants (H&E): FIG. 15; for activity in inducing onset of osteogenesis in muscle implants in vivo: compared with rBMP-2
Method: In vivo osteogenic activity. The recombinant proteins, Emdogain and controls were each included in a bioabsorbable polymer matrix implants. The implants were prepared in poly (lactide)-poly(glycolide) scaffolds by the procedure of Whang et al. (1998) with 167 μg per implant. Implants were placed in the quadriceps of the hind legs of 100 g, 4 week old, male Long-Evans rats. Each animal received a negative control implant containing 167 μg of BSA in PBS. The implants were kept in place for 28 days. The implants were removed and radiographed, then they were fixed in 4% paraformaldehyde, dehydrated in graded ethanol and embedded in paraffin. Sections (7μ thick) were cut and stained with either Von Kossa or Alizarin Red dyes, both of which can indicate the presence of mineralized deposits containing divalent cations. To assure that the stains seen were calcific deposits, serial sections were treated with 5% EGTA for 10 min before staining.

[3] = system: embryonic rat muscle fibroblasts (EMF); assay: Cell number of EMF after exposure to factors; format: cell-based; conditions: after 5 days in culture, after a 24 h exposure
Method: In vitro assay for chondrogenic activity: The purified recombinant proteins were tested for biological activity by the assay for enhanced incorporation of ^35S—SO4 into proteoglycan (8,11) by embryonic rat muscle fibroblasts (EMF). The EMF were seeded onto type I collagen coated 96 well plates, with an initial loading of 10^4 cell/well. The cells were grown to near confluence in alpha MEM, 10% FBS, 1% Pen/Strep in 5 days. At day 5 the growth media was replaced with conditioning media (CM), alpha MEM, 0.5% FBS, 1% Pen/Strep, and grown for an additional 24 h. Fresh CM containing the factors to be tested, was added at the concentrations noted. Four hours later, 1 μCi^35 S—SO4 in 10 μL sterile PBS was added per well, and incubation was continued for 20 h. The ^35S—SO4 incorporated into secreted proteoglycan was determined by precipitation of the proteoglycan with cetyl pyridinium chloride, as described above, followed by scintillation counting of the precipitate. The cell layer was trypsinized and the number of cells counted. Incorporation is presented as counts per minute per cell ×10^3. Recombinant human BMP2 (A kind gift from the Genetics Institute, Boston, Mass.) and the bioactive crude S100 fractions from rat incisor dentin (Amar et al., 1991) and/or bovine dentin (see Example 1) were used as the positive controls. […]

| Molecule | activity in directing change in phenotype of embryonic rat muscle fibroblasts in vitro [1] | concentration as low as which production of 35S-SO4-labeled proteoglycan was stimulated ([1]; monolayer culture, FIG. 13) [ng/mL] | concentration as low as which production of 35S-SO4-labeled proteoglycan was stimulated (molar) ([1]; monolayer culture, FIG. 13) [pM] | alkaline phosphatase in implants ([2]; 167 μg per implant) | mineral deposition in implants, Alizarin Red and von Kossa staining ([2]; 167 μg per implant) | radiograph of implants after excision, mineralization pattern ([2]; 167 μg per implant) | vascularization, cell infiltration and extracellular matrix in implants (H&E) ([2]; 167 μg per implant) | mineral deposition in implants, Alizarin Red and von Kossa staining ([2]; 167 μg per implant, listed as (A-4)) | ingrowth of capillaries and extracellular matrix formation, r(A-4) versus rA4 implants [2] | activity in inducing onset of osteogenesis in muscle implants in vivo [2] | cell number (growth factor action) [3] | stimulation of 35S-SO4-labeled proteoglycan production at low concentrations, relative to r(A-4) ([1]; equivalent low (ng/ml) concentrations) | effect on sulfate incorporation compared with rhBMP-2 positive control ([1]; rhBMP-2 at 10 ng/ml) | mineral deposition in implants, Alizarin Red and von Kossa staining ([2]; 167 μg per implant, listed as A4) |
| --- | --- | --- | --- | --- | --- | --- | --- | --- | --- | --- | --- | --- | --- | --- |
| r(A-4): recombinant polypeptide SEQ ID NO:5, secreted form of rat amelogenin gene splice product, exons 2, 3, 5, 6d and 7 (MPLPPHPGSPGYINLSYEVLTPLKWYQSMIRQPPLSPILPELPLEAWPATDKTKREEVD; Recombinant rat amelogenin) | equivalent to rBMP-2 | 1 | ~140 | positive | stained strongly | heavier mineralization around the periphery | vascularized and filled with extracellular matrix; also recorded: infiltrated by many cells, and an abundant network of capillaries | highly positive for deposition of mineral | more prominent | equivalent to rBMP-2 | did not increase | – | – | – |
| B1 | equivalent to rBMP-2 | – | – | – | calcified to a lesser extent | more punctate deposition of mineral | vascularized and filled with extracellular matrix; also recorded: vascularized but more sparsely than the r(A-4) implants | – | islands of capillaries, and the formation of a surrounding extracellular matrix was also evident | equivalent to rBMP-2 | increase | less active | quite comparable | some focal deposits of mineral |
| B2 | – | – | – | – | inactive | – | – | – | – | – | – | – | – | – |
